In patent US20060167106A1, “Compounds acting at the centrosome” (priority 2004, published 2006):
“Also recorded” adds a separate entry of the source.

Tests used:
CHO-α-tubulin-YFP cells = test: α-tubulin-YFP localization in CHO-α-tubulin-YFP cells (fluorescence imaging); assay type: cell-based, Chinese hamster; conditions: for accumulation of tubulin in the centrosomes (overall statement): CHO-tubulin-YFP cells, concentration and time not given; for accumulation of tubulin at the centrosomes versus in the nucleus (overall statement): cells treated, concentration not given
Hsp70 = Hsp70 Western blotting in MDA-435 cells; assay type: cell-based; conditions: 0.5 μM; for percentage change in Hsp70 expression relative to DMSO control: normalized to background and GAPDH
Procedure: Calculations of the percentage changes were made by using the automated band analysis tools of the Kodak 1D (v.3.6.3) program. Band intensities were normalized to background and GAPDH.
MDA-435 breast cancer cells were grown in 100 mm plastic-tissue culture dishes and treated for 6 and 24 hours with 0.5 μM Taxol, Compound 1, Taxol+Compound 1, MG132, ALLN, or DMSO. After treatment, cells were washed in PBS and cell lysates were prepared by adding 100 μL of lysis buffer, which contained 20 mM Tris-HCl (pH 7.5), 150 mM NaCl, 1 mM Na2EDTA, 1 mM EGTA, 1% Triton, 2.5 mM sodium pyrophosphate, 1 mM β-glycerophosphate, 1 mM Na3VO4 and 1 μg/ml leupeptin (Cell Signaling Technology, Beverly, Mass.) supplemented with 1 mM PMSF (Sigma, St. Louis, Mo.) immediately before use, on ice for 1 hour. After scraping, the lysates were cleared by centrifugation at 13,000 RPM for 10 minutes at 4° C. Protein content was determined using a Bradford assay and bovine serum albumin as a standard (Bio-Rad Laboratories, Hercules, Calif.). Samples were solubilized by boiling in SDS sample buffer and subjected to SDS-PAGE. The proteins were subsequently transferred to a PVDF membrane (Bio-Rad, Hercules, Calif.). After blocking with 5% nonfat milk in TBS for 1 hour, the blots were incubated with a mouse monoclonal anti-Hsp70 antibody, which is specific for the inducible form of Hsp70 (Clone C92F3A-5, 1:1000 dilution, Stressgen Biotechnologies Corp., Victoria, B.C., Canada) or a rabbit polyclonal anti-GAPDH antibody (1:2000 dilution, Abcam, Cambridge, Mass.) for 2 hours at room temperature. The horseradish-peroxidase-conjugated secondary antibodies, anti-mouse horse radish peroxidase, (1:2000, Bio-Rad, Hercules, Calif.) and goat anti-rabbit polyclonal horse radish peroxidase (1:2000, Abcam, Cambridge, Mass.)) were diluted in blocking buffer and incubated with the blot for 1 hour at room temperature. The secondary antibodies were detected by enhanced chemiluminescence (ECL, Amersham Biosciences, Piscataway, N.J.) and imaged using a Kodak 440 Image Station.

MCF-7 cells = test: α-tubulin-YFP localization in MCF-7 cells; assay type: cell-based; conditions: 40 hours after treatment with 500 nM for 25 hours
Description: MDA-435, MCF-7, CV-1, HT-29 and MCF-10A cell lines were maintained with 10% FBS-containing DMEM media. […] Living cells were examined using a fluorescent microscope for α-tubulin-YFP expression. Cells in single colonies that had microtubules labeled with tubulin-YFP were lifted and expanded using G418-containing media.

| Compound | accumulation of α-tubulin-YFP at centrosomes (CHO-α-tubulin-YFP cells; CHO cells, 50 nM, 8 hours) | accumulation of α-tubulin-YFP at centrosomes (CHO-α-tubulin-YFP cells; CHO cells, 50 nM, 20 hours) | accumulation of α-tubulin-YFP at centrosomes (CHO-α-tubulin-YFP cells; CHO cells, 100 nM, 4 hours) | accumulation of α-tubulin-YFP at the centrosomes (CHO-α-tubulin-YFP cells; CHO cells, 0.5 μM, 5 hours) | accumulation of α-tubulin-YFP at the centrosomes (CHO-α-tubulin-YFP cells; CHO cells, 0.5 μM, 11 hours) | accumulation of tubulin-YFP at the centrosomes (CHO-α-tubulin-YFP cells; CHO cells, 0.5 μM, 24 hours) | accumulation of α-tubulin-YFP at centrosomes (CHO-α-tubulin-YFP cells; CHO cells, 500 nM, 4 hours) | accumulation of α-tubulin-YFP at centrosomes (CHO-α-tubulin-YFP cells; CHO cells, 500 nM, 20 hours) | first sign of tubulin accumulation at the centrosomes, time after treatment (CHO-α-tubulin-YFP cells; CHO cells, Compound 1 alone (0.5 μM)) | accumulation of tubulin in the centrosomes (overall statement) (CHO-α-tubulin-YFP cells) | accumulation of tubulin at the centrosomes versus in the nucleus (overall statement) (CHO-α-tubulin-YFP cells) | induction of Hsp70 expression (Hsp70; 6 and 24 hours) | percentage change in Hsp70 expression relative to DMSO control (Hsp70; 6 hours of treatment) | percentage change in Hsp70 expression relative to DMSO control (Hsp70; 24 hours of treatment) | accumulation of α-tubulin-YFP at centrosome-like structures (MCF-7 cells) | accumulation of α-tubulin-YFP in the nucleus (CHO-α-tubulin-YFP cells; CHO cells, 50 nM, 20 hours) | accumulation of α-tubulin-YFP at centrosomes (CHO-α-tubulin-YFP cells; CHO cells, 500 nM, 8 hours) | accumulation of α-tubulin-YFP in the nucleus (CHO-α-tubulin-YFP cells; CHO cells, 500 nM, 8 hours) | accumulation of α-tubulin-YFP in the nucleus (CHO-α-tubulin-YFP cells; CHO cells, 500 nM, 20 hours) |
| --- | --- | --- | --- | --- | --- | --- | --- | --- | --- | --- | --- | --- | --- | --- | --- | --- | --- | --- | --- |
| CN(NC(=O)CC(=O)NN(C)C(=S)c1ccccc1)C(=S)c1ccccc1 [Compound 1] | accumulation of α-tubulin-YFP at centrosomes; also recorded: induced accumulation of tubulin at centrosomes within 8 hours | accumulation of α-tubulin-YFP at centrosomes | accumulation of tubulin at centrosomes could be observed; also recorded: accumulation of α-tubulin-YFP at centrosomes | accumulation of α-tubulin-YFP at the centrosomes and perinuclear regions | accumulation of α-tubulin-YFP at the centrosomes; also recorded: more frequent and greater accumulation of tubulin at the centrosome | accumulation of tubulin-YFP at the centrosomes | accumulation of α-tubulin-YFP at centrosomes | accumulation of α-tubulin-YFP at centrosomes | 5 h | time-dependent accumulation of α-tubulin-YFP at the centrosomes; also recorded: caused an accumulation of tubulin in the centrosomes | induced accumulation of tubulin only at the centrosomes; also recorded: not observed | strongly induced Hsp70 expression | 980% | 2121% | accumulation of α-tubulin-YFP at centrosome-like structures |  |  |  |  |
| CC(C)C[C@H](NC(=O)[C@H](Cc1ccccc1)NC(=O)c1cnccn1)B(O)O [Velcade] |  | accumulation of α-tubulin-YFP at centrosomes |  |  |  |  | lack of accumulation of tubulin-YFP at the centrosomes | accumulation of α-tubulin-YFP at centrosomes |  | required a higher concentration (500 nM; FIG. 25D) and/or a longer time period | both accumulation of tubulin at the centrosomes and in the nucleus; also recorded: induced accumulation of tubulin in the nucleus |  |  |  |  | accumulation of α-tubulin-YFP in the nucleus | accumulation of α-tubulin-YFP at centrosomes | accumulation α-tubulin-YFP in the nucleus | accumulation of α-tubulin-YFP in the nucleus |
